The values that follow come from US8383641B2, “Aryloxyethylamine compounds suitable for treating disorders that respond to modulation of the dopamine D3 receptor” (Abbott GmbH & Co. KG, priority 2006, dated 2013).

Experiment [1] addresses T1, human dopamine D2L receptors (long isoform) (Homo sapiens, UniProt P14416).
T1 construct: expressed in transfected cells; host or cells: HEK-293
The experiment can be described thus: Dopamine D2L receptor binding, [125I] iodospiperone displacement. The note with it: selectivity ratio of receptor binding constants, D2L versus D3. How it is done:
(§1) The substance to be tested was either dissolved in methanol/Chremophor® (BASF-AG) or in dimethyl sulfoxide and then diluted with water to the desired concentration.
(§2) Each assay mixture was run in triplicate.
The incubation buffer contained 50 mM tris, 120 mM NaCl, 5 mM KCl, 2 mM CaCl2, 2 mM MgCl2 and 0.1% bovine serum albumin. The buffer was adjusted to pH 7.4 with HCl.
(§3) After having been incubated at 25° C. for 60 minutes, the assay mixtures were filtered through a Whatman GF/B glass fiber filter under vacuum using a cell collecting device. The filters were transferred to scintillation viols using a filter transfer system. After 4 ml of Ultima Gold® (Packard) have been added, the samples were shaken for one hour and the radioactivity was then counted in a Beta-Counter (Packard, Tricarb 2000 or 2200CA). The cpm values were converted into dpm using a standard quench series and the program belonging to the instrument.
(§4) The inhibition curves were analyzed by means of iterative nonlinear regression analysis using the Statistical Analysis System (SAS) which is similar to the “LIGAND” program described by Munson and Rodbard.

Experiment [2] deals with T2, human dopamine D3 receptors (Homo sapiens, UniProt P35462).
T2 construct: expressed in transfected cells; host or cells: HEK-293
Put plainly: Dopamine D3 receptor binding, [125I]-iodosulpride displacement. Particulars: membranes of HEK-293 cells expressing human D3 receptor; 0.1 nM [125I]-iodosulpride. How it is done:
as §1, §2
The incubation buffer contained 50 mM tris, 120 mM NaCl, 5 mM KCl, 2 mM CaCl2, 2 mM MgCl2 and 0.1% bovine serum albumin, 10 μM quinolone and 0.1% ascorbic acid (prepared fresh daily). The buffer was adjusted to pH 7.4 with HCl.
as §3, §4

SMILES strings stand for the structures. Structures can show the parent of a compound that is named as a salt.

T1 sequence (P14416 whole entry, canonical isoform): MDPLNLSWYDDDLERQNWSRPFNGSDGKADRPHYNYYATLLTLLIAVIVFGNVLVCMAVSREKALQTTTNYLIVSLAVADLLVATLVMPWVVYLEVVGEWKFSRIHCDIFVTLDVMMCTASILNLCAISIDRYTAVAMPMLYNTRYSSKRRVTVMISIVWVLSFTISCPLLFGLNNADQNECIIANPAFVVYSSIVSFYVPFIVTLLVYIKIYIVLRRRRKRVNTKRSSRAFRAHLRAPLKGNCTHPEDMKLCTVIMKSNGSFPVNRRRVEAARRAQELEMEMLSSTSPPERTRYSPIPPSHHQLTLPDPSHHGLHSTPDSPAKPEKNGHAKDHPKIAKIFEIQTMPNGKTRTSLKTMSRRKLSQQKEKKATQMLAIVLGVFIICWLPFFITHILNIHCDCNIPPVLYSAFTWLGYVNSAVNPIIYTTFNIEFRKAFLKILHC
T2 sequence (P35462 whole entry): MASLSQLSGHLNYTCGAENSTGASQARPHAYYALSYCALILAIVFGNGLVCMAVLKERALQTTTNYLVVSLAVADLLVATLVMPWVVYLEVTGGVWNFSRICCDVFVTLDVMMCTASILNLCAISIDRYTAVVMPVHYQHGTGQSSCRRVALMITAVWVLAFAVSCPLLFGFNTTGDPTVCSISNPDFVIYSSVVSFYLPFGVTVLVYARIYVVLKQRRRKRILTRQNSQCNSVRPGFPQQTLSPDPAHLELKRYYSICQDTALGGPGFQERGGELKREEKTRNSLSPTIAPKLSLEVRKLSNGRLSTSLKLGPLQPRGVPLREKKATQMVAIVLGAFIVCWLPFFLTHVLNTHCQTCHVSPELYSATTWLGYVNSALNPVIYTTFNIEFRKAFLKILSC

By Ki is commonly meant the dissociation constant of the complex between target and ligand, obtained from inhibition or displacement. A higher Ki goes with lower affinity. Consider `COc1nc(OCCN2CCCC2)ccc1NS(=O)(=O)c1ccc(CCCF)cc1` [Example 15, 4-(3-Fluoro-propyl)-N-[2-methoxy-6-(2-pyrrolidin-1-yl-ethoxy)-pyridin-3-yl]-benzenesulfonamide], for which the “Ki(D2)*/Ki(D3)*” value in experiment [1] is “+ (between 10 and 50)”. The compound further registered an inhibition constant (Ki) in experiment [2] of 10 to 50 nM.

`CCCNCCOc1cc(C)c(NS(=O)(=O)c2ccc([C@@H](C)CF)cc2)cn1` [Example 57, 4-((R)-2-Fluoro-1-methyl-ethyl)-N-[4-methyl-6-(2-propylamino-ethoxy)-pyridin-3-yl]-benzenesulfonamide×HCl]: in experiment [1], the “Ki(D2)*/Ki(D3)*” value was “++ (between 50 and 100)”. Further, in experiment [2], the Ki fell in the range of 10 to 50 nM.

As for `CCCNCCOc1ccc(NS(=O)(=O)c2ccc(C(C)C(F)(F)F)cc2)c(OC)n1` (centres unmarked) [Example 3, N-[2-Methoxy-6-(2-propylamino-ethoxy)-pyridin-3-yl]-4-(2,2,2-trifluoro-1-methylethyl)-benzenesulfonamide×HCl], the “Ki(D2)*/Ki(D3)*” value in experiment [1] was “++ (between 50 and 100)”. This compound also returned a Ki in experiment [2] of 1 to 10 nM.

For `CCCNCCOc1ccc(NS(=O)(=O)c2ccc(-c3cnco3)cc2)c(C)n1` [Example 36, N-[2-Methyl-6-(2-propylamino-ethoxy)-pyridin-3-yl]-4-oxazol-5-yl-benzenesulfonamide×HCl], in experiment [1], the “Ki(D2)*/Ki(D3)*” value is given as “++++ (>150)”. Also, the Ki in experiment [2] was 10 to 50 nM.

For the compound `CCCNCCOc1ccc(NS(=O)(=O)c2ccc([C@@H](C)CF)cc2)c(OC)n1` [Example 11, 4-((R)-2-Fluoro-1-methyl-ethyl)-N-[2-methoxy-6-(2-propylamino-ethoxy)-pyridin-3-yl]-benzenesulfonamide×HCl], in experiment [1], the “Ki(D2)*/Ki(D3)*” value is reported as “++++ (>150)”. Besides, the inhibition constant Ki in experiment [2] is below 1 nM.

In the case of `COc1nc(OCCN2CCCC2)ccc1NS(=O)(=O)c1ccc(C(C)C(F)(F)F)cc1` (centres unmarked) [Example 18, N-[2-Methoxy-6-(2-pyrrolidin-1-yl-ethoxy)-pyridin-3-yl]-4-(2,2,2-trifluoro-1-methyl-ethyl)-benzenesulfonamide], the “Ki(D2)*/Ki(D3)*” value in experiment [1] is “+ (between 10 and 50)”. Moreover, the Ki in experiment [2] was in the range of 1 to 10 nM.

As to `CCCN1CCC(Oc2ccc(NS(=O)(=O)c3ccc(C(C)C)cc3)c(C)n2)C1.O=C(O)/C=C/C(=O)O` (centres unmarked) [Example 61, 4-Isopropyl-N-{2-methyl-6-[(1-propylpyrrolidin-3-yl)oxy]pyridin-3-yl}benzenesulfonamide (2E)-but-2-enedioate], the “Ki(D2)*/Ki(D3)*” value in experiment [1] was “+ (between 10 and 50)”. For the same compound, the Ki in experiment [2] is 1 to 10 nM.

For `Cc1nc(OC[C@@H]2CCCN2)ccc1NS(=O)(=O)c1ccc(C(C)C)cc1` [Example 43, 4-Isopropyl-N-[2-methyl-6-((S)-1-pyrrolidin-2-ylmethoxy)-pyridin-3-yl]-benzenesulfonamide×HCl], in experiment [1], the “Ki(D2)*/Ki(D3)*” value was “+++ (between 100 and 150)”. This compound also showed a Ki in experiment [2] of 1 to 10 nM.

On to `COc1nc(OCCN2CCCC2)ccc1NS(=O)(=O)c1ccc(-c2cnco2)cc1` [Example 19, N-[2-Methoxy-6-(2-pyrrolidin-1-yl-ethoxy)-pyridin-3-yl]-4-oxazol-5-yl-benzenesulfonamide], for which, in experiment [1], the “Ki(D2)*/Ki(D3)*” value is “+ (between 10 and 50)”. For the same compound, the Ki in experiment [2] was 10 to 50 nM.

Compound `CC(C)c1ccc(S(=O)(=O)Nc2ccc(OCCN(C)C)nc2)cc1` [Example 22, N-[6-(2-Dimethylamino-ethoxy)-pyridin-3-yl]-4-isopropyl-benzenesulfonamide×HCl] returned a Ki in experiment [2] of 50 to 150 nM.

As to `COc1nc(OC2CCNC2)ccc1NS(=O)(=O)c1ccc(C(C)C)cc1` (centres unmarked) [Example 13, 4-Isopropyl-N-[2-methoxy-6-(pyrrolidin-3-yloxy)-pyridin-3-yl]-benzenesulfonamide×HCl], in experiment [1], the “Ki(D2)*/Ki(D3)*” value is “+ (between 10 and 50)”. Also, in experiment [2], the Ki lay in the range of 50 to 150 nM.

Consider `CCCNCCOc1ccc(NS(=O)(=O)c2ccc(OC(F)(F)F)cc2)c(OC)n1.Cl` [Example 2, N-[2-Methoxy-6-(2-propylamino-ethoxy)-pyridin-3-yl]-4-trifluoromethoxy-benzenesulfonamide×HCl], for which the “Ki(D2)*/Ki(D3)*” value in experiment [1] is “+ (between 10 and 50)”. In experiment [2], this compound returned a Ki of 1 to 10 nM.

In the case of `CCCNCCOc1ccc(NS(=O)(=O)c2ccc(CCF)cc2)c(OC)n1` [Example 6, 4-(2-Fluoro-ethyl)-N-[2-methoxy-6-(2-propylamino-ethoxy)-pyridin-3-yl]-benzenesulfonamide×HCl], the “Ki(D2)*/Ki(D3)*” value in experiment [1] is “++ (between 50 and 100)”. In experiment [2], this compound gave a Ki of 1 to 10 nM.

For the compound `CCCNCCOc1ccc(NS(=O)(=O)c2ccc(C(C)C)cc2)cn1` [Example 23, 4-Isopropyl-N-[6-(2-propylamino-ethoxy)-pyridin-3-yl]-benzenesulfonamide×HCl], the “Ki(D2)*/Ki(D3)*” value in experiment [1] was “+ (between 10 and 50)”. In experiment [2], this compound came in with a Ki of 10 to 50 nM.

`CCCNCCOc1ncc(NS(=O)(=O)c2ccc(C(C)C)cc2)c(OC)n1` [Example 20, 4-isopropyl-N-[4-methoxy-2-(2-propylamino-ethoxy)-pyrimidin-5-yl]-benzenesulfonamide]: the “Ki(D2)*/Ki(D3)*” value in experiment [1] is “+ (between 10 and 50)”. Moreover, the Ki in experiment [2] fell in the range of 1 to 10 nM.

`CCCN(CCC)CCOc1ccc(NS(=O)(=O)c2ccc(C(C)C)cc2)cn1` [Example 24, N-[6-(2-Dipropylamino-ethoxy)-pyridin-3-yl]-4-isopropyl-benzenesulfonamide×HCl]: the “Ki(D2)*/Ki(D3)*” value in experiment [1] is “++ (between 50 and 100)”. Besides, the inhibition constant Ki in experiment [2] fell in the range of 10 to 50 nM.

As for `CCCNCCOc1ccc(NS(=O)(=O)c2ccc(OC(F)F)cc2)c(OC)n1` [Example 5, 4-Difluoromethoxy-N-[2-methoxy-6-(2-propylamino-ethoxy)-pyridin-3-yl]-benzenesulfonamide×HCl], the “Ki(D2)*/Ki(D3)*” value in experiment [1] is “++ (between 50 and 100)”. The compound also had a Ki in experiment [2] of 1 to 10 nM.

Consider `CCCNCCOc1ccc(NS(=O)(=O)c2ccc(CCCF)cc2)c(OC)n1` [Example 1, 4-(3-Fluoro-propyl)-N-[2-methoxy-6-(2-propylamino-ethoxy)-pyridin-3-yl]-benzenesulfonamide×HCl], for which the “Ki(D2)*/Ki(D3)*” value in experiment [1] was “++ (between 50 and 100)”. The same compound came in with a Ki in experiment [2] below 1 nM.

For `CCCNCCOc1ccc(NS(=O)(=O)c2ccc(OCCF)cc2)c(OC)n1` [Example 8, 4-(2-Fluoro-ethoxy)-N-[2-methoxy-6-(2-propylamino-ethoxy)-pyridin-3-yl]-benzenesulfonamide×HCl], in experiment [1], the “Ki(D2)*/Ki(D3)*” value is listed as “++++ (>150)”. The Ki in experiment [2] was 1 to 10 nM.

For `CCCNCCOc1ccc(NS(=O)(=O)c2ccc(OCC(F)F)cc2)c(OC)n1` [Example 9, 4-(2,2-Difluoro-ethoxy)-N-[2-methoxy-6-(2-propylamino-ethoxy)-pyridin-3-yl]-benzenesulfonamid×HCl], in experiment [1], the “Ki(D2)*/Ki(D3)*” value is given as “++++ (>150)”. This compound registered a Ki in experiment [2] of 1 to 10 nM.

Regarding `COc1nc(OCCN2CCCC2)ccc1NS(=O)(=O)c1ccc(C(C)C)cc1` [Example 16, 4-Isopropyl-N-[2-methoxy-6-(2-pyrrolidin-1-yl-ethoxy)-pyridin-3-yl]-benzenesulfonamide×HCl], the “Ki(D2)*/Ki(D3)*” value in experiment [1] was “+ (between 10 and 50)”. Moreover, the Ki in experiment [2] lay in the range of 1 to 10 nM.

For `COc1nc(OCCN2CCCC2)ccc1NS(=O)(=O)c1ccc([C@@H](C)CF)cc1` [Example 17, 4-((R)-2-Fluoro-1-methyl-ethyl)-N-[2-methoxy-6-(2-pyrrolidin-1-yl-ethoxy)-pyridin-3-yl]-benzenesulfonamide], in experiment [1], the “Ki(D2)*/Ki(D3)*” value is “++ (between 50 and 100)”. This compound also registered a Ki in experiment [2] of 1 to 10 nM.

As to `CCCNCCOc1ccc(NS(=O)(=O)c2ccc(OCC(F)(F)F)cc2)c(OC)n1` [Example 10, N-[2-Methoxy-6-(2-propylamino-ethoxy)-pyridin-3-yl]-4-(2,2,2-trifluoro-ethoxy)-benzenesulfonamide×HCl], the “Ki(D2)*/Ki(D3)*” value in experiment [1] is “++++ (>150)”. In experiment [2], this compound came in with a Ki of 1 to 10 nM.

`CCCNCCOc1ncc(NS(=O)(=O)c2ccc(OC(F)(F)F)cc2)c(OC)n1` [Example 21, N-[4-Methoxy-2-(2-propylamino-ethoxy)-pyrimidin-5-yl]-4-trifluoromethoxy-benzenesulfonamide]: the “Ki(D2)*/Ki(D3)*” value in experiment [1] was “++ (between 50 and 100)”. In addition, the Ki in experiment [2] lay in the range of 50 to 150 nM.

`CCCNCCOc1ccc(NS(=O)(=O)c2ccc(C(C)C)cc2)c(C)n1` [Example 29, 4-Isopropyl-N-[2-methyl-6-(2-propylamino-ethoxy)-pyridin-3-yl]-benzenesulfonamide×HCl]: the “Ki(D2)*/Ki(D3)*” value in experiment [1] is “++++ (>150)”. Moreover, the Ki in experiment [2] is below 1 nM.

Regarding `CCCNCCOc1ccc(NS(=O)(=O)c2ccc(C(C)C)cc2)c(OC)n1` [Example 4, 4-Isopropyl-N-[2-methoxy-6-(2-propylamino-ethoxy)-pyridin-3-yl]-benzenesulfonamide×HCl], in experiment [1], the “Ki(D2)*/Ki(D3)*” value is “++ (between 50 and 100)”. The Ki in experiment [2] was below 1 nM.

Take `COc1nc(OC[C@H]2CCCN2)ccc1NS(=O)(=O)c1ccc(-c2cnco2)cc1` [Example 27, N-[2-Methoxy-6-((R)-1-pyrrolidin-2-ylmethoxy)-pyridin-3-yl]-4-oxazol-5-yl-benzenesulfonamide×HCl]: in experiment [1], the “Ki(D2)*/Ki(D3)*” value was “+++ (between 100 and 150)”. The compound further came in with a Ki in experiment [2] of 1 to 10 nM.
